According to ChEMBL document CHEMBL4152326 (2018):
Activity calls are given as the source filed them. No cut-off for these calls is given here.

How the values were obtained:
[1] = tested on: Stenotrophomonas maltophilia; experiment: Antimicrobial activity against L-1 producing Stenotrophomonas maltophilia SR21970 in presence of human apo-transferrin by broth microdilution method; type: functional
Pseudomonas aeruginosa [2] = experiment: Antimicrobial activity against IMP-1 producing Pseudomonas aeruginosa SR27001 in presence of human apo-transferrin by broth microdilution method; type: functional
Escherichia coli = experiment: Antimicrobial activity against SHV-4 producing Escherichia coli ATCC BAA-200 in presence of human apo-transferrin by broth microdilution method; type: functional
Pseudomonas aeruginosa [3] = experiment: Antimicrobial activity against VIM-2 producing Pseudomonas aeruginosa SBRKM-28 in presence of human apo-transferrin by broth microdilution method; type: functional
Pseudomonas aeruginosa [4] = experiment: Antimicrobial activity against Pseudomonas aeruginosa SR24 in presence of human apo-transferrin by broth microdilution method; type: functional
Klebsiella pneumoniae = experiment: Antimicrobial activity against KPC-2 producing Klebsiella pneumoniae ATCC BAA-1705 in presence of human apo-transferrin by broth microdilution method; type: functional
Pseudomonas aeruginosa [5] = experiment: Antibacterial activity against Pseudomonas aeruginosa SR27001 infected in Jcl:ICR mouse systemic infection model assessed as increase in mouse survival rate administered iv 1 to 5 hrs post infection measured over 7 days; type: functional
Pseudomonas aeruginosa [6] = experiment: Antimicrobial activity against AmpC overproducing Pseudomonas aeruginosa SR24-12 in presence of human apo-transferrin by broth microdilution method; type: functional
Pseudomonas aeruginosa [7] = experiment: Antimicrobial activity against IMP-1 producing Pseudomonas aeruginosa SR27060 in presence of human apo-transferrin by broth microdilution method; type: functional
Pseudomonas aeruginosa [8] = experiment: Antimicrobial activity against Pseudomonas aeruginosa 27060deltaR1 harboring deletion of R1 plasmid in presence of human apo-transferrin by broth microdilution method; type: functional
Acinetobacter baumannii = experiment: Antimicrobial activity against OXA-23/OXA-58 producing Acinetobacter baumannii SR27323 in presence of human apo-transferrin by broth microdilution method; type: functional
[9] = Iron chelating activity in presence of cetyltrimethylammonium bromide at pH 5.5 by chromeazurol B dye based spectrophotometric method

| Compound | MIC [1] [µg/mL] | MIC (Pseudomonas aeruginosa [2]) [µg/mL] | MIC (Escherichia coli) [µg/mL] | MIC (Pseudomonas aeruginosa [3]) [µg/mL] | MIC (Pseudomonas aeruginosa [4]) [µg/mL] | MIC (Klebsiella pneumoniae) [µg/mL] | ED50 (Pseudomonas aeruginosa [5]) [mg/kg] | MIC (Pseudomonas aeruginosa [6]) [µg/mL] | MIC (Pseudomonas aeruginosa [7]) [µg/mL] | MIC (Pseudomonas aeruginosa [8]) [µg/mL] | MIC (Acinetobacter baumannii) [µg/mL] | Activity [9] |
| --- | --- | --- | --- | --- | --- | --- | --- | --- | --- | --- | --- | --- |
| CC(C)(O/N=C(\C(=O)N[C@@H]1C(=O)N2C(C(=O)[O-])=C(C[N+]34CCC(CNC(=O)c5ccc(O)c(O)c5Cl)(CC3)CC4)CS[C@H]12)c1csc(N)n1)C(=O)O | 0.25 | 2 | 2 | 0.125 | 0.25 | 0.063 | 9.42 | 0.5 | 4 | 1 | 1 | – |
| C[C@@H](O/N=C(\C(=O)N[C@@H]1C(=O)N2C(C(=O)[O-])=C(C[N+]3(CCNC(=O)c4ccc(O)c(O)c4Cl)CCCC3)CS[C@H]12)c1csc(N)n1)C(=O)O | 0.5 | 1 | 1 | 0.125 | 0.25 | 0.063 | 5.48 | 0.5 | 2 | 1 | 1 | – |
| C[C@H](O/N=C(\C(=O)N[C@@H]1C(=O)N2C(C(=O)[O-])=C(C[N+]3(CCNC(=O)c4ccc(O)c(O)c4Cl)CCCC3)CS[C@H]12)c1csc(N)n1)C(=O)O | 0.5 | 1 | 4 | 0.125 | 0.25 | 0.063 | – | 0.25 | 2 | 1 | 1 | – |
| CC(C)(O/N=C(\C(=O)N[C@@H]1C(=O)N2C(C(=O)[O-])=C(C[N+]3(CCNC(=O)c4ccc(O)c(O)c4O)CCCC3)CS[C@H]12)c1csc(N)n1)C(=O)O | 8 | 32 | 32 | – | 1 | 1 | – | 2 | 16 | 4 | 32 | Active |
| CC(C)(O/N=C(\C(=O)N[C@@H]1C(=O)N2C(C(=O)[O-])=C(C[N+]3(CCNC(=O)c4cc(O)c(O)cc4Cl)CCCC3)CS[C@H]12)c1csc(N)n1)C(=O)O | 0.25 | 2 | 2 | – | 0.063 | ≤ 0.031 | 10.2 | 0.125 | 2 | 1 | 1 | – |
| CC(C)(O/N=C(\C(=O)N[C@@H]1C(=O)N2C(C(=O)[O-])=C(C[N+]3(CCNC(=O)c4cc(O)c(O)c(Cl)c4)CCCC3)CS[C@H]12)c1csc(N)n1)C(=O)O | 0.25 | 1 | 0.5 | – | 0.063 | ≤ 0.031 | 10.2 | 0.125 | 1 | 0.25 | 0.25 | – |
| CC(C)(O/N=C(\C(=O)N[C@@H]1C(=O)N2C(C(=O)[O-])=C(C[n+]3cc(NC(=O)c4ccc(O)c(O)c4Cl)c4n3CCN4)CS[C@H]12)c1csc(N)n1)C(=O)O | > 16 | 16 | 1 | 0.5 | 0.25 | 0.125 | – | 0.5 | 16 | 0.5 | 0.5 | – |
| CC(C)(O/N=C(\C(=O)N[C@@H]1C(=O)N2C(C(=O)[O-])=C(C[N+](C)(C)CCNC(=O)c3ccc(O)c(O)c3Cl)CS[C@H]12)c1csc(N)n1)C(=O)O | > 32 | > 32 | > 32 | 0.25 | 0.063 | 0.5 | – | 4 | 32 | 2 | 0.5 | – |
| Nc1nc(/C(=N/O[C@H](C(=O)O)c2ccccc2)C(=O)N[C@@H]2C(=O)N3C(C(=O)[O-])=C(C[N+]4(CCNC(=O)c5ccc(O)c(O)c5Cl)CCCC4)CS[C@H]23)cs1 | 0.25 | 0.5 | 0.5 | 0.125 | 0.25 | 0.031 | – | 0.25 | 4 | 0.5 | 0.25 | – |
| CC(C)(O/N=C(\C(=O)N[C@@H]1C(=O)N2C(C(=O)[O-])=C(C[N@+]34CCC[C@H]3CN(C(=O)c3ccc(O)c(O)c3Cl)CC4)CS[C@H]12)c1csc(N)n1)C(=O)O | 0.5 | 0.5 | 2 | 0.25 | 0.25 | 0.063 | – | 0.5 | 4 | 1 | 2 | – |
| CC(C)(O/N=C(\C(=O)N[C@@H]1C(=O)N2C(C(=O)[O-])=C(C[N+](C)(C)C3CCN(C(=O)c4ccc(O)c(O)c4Cl)CC3)CS[C@H]12)c1csc(N)n1)C(=O)O | 1 | 4 | 2 | 0.5 | 0.5 | 0.125 | – | 1 | 4 | 1 | 2 | – |
